“And” between values parts separate entries of the source, which are not always exact repeats. Equal values may be shown once.
Legend:
[1] = test system: 65N-hC, shuffled hASNase1/gpASNase1 clone #65 with human C-terminal domain, SEQ ID NO:41; assay: L-asparaginase kinetics, NADH-dependent enzyme-coupled assay; assay type: biochemical, human / guinea pig; conditions: pH 7.5, 37° C.
Procedure: (§1) The catalytic activity of the clones was determined using a spectroscopic NADH-dependent enzyme-coupled assay (Fernandez, et al. (2013) Int. J. Clin. Exp. Med. 6:478-487; Hejazi, et al. (2002) Biochem. J. 364:129-136), which measures the production of L-aspartic acid (Asp) through the 1:1 oxidation of reduced NADH. The conversion of NADH to NAD was measured spectrophotometrically as a decrease in absorbance at 340 nm at 37° C. All measurements were taken in triplicate in a buffer containing 100 mM Tris pH 7.5, 0.4 mM α-ketoglutarate and 0.4 mM NADH with 50 nM (hASNase1, hN-gC); 10 nM (gpASNase1, gN-hC, 63-hC, 64-hC, 65-hC, SA-hC) or 3 nM (ansB) enzyme. Glutamic-oxalacetic transaminase (Sigma) and malic dehydrogenase (Sigma) were helper enzymes for the coupled enzymatic reactions; 5 and 1 unit were used, respectively. Data were fit to the Michaelis-Menten equation using SigmaPlot (Systat Software Inc). Due to the cooperative nature of hASNase1, this enzyme was analyzed using the Hill equation.
(§2) Since the goal was to identify a clone with gpASNase1 kinetic properties but with the highest sequence homology to hASNase1, the four clones, #63, #64, #65 and # SA, were engineered by replacing their shuffled C-terminal domain with the exact sequence of the human C-terminal domain (FIG. 1).
(§3) For determining the precise kinetic properties of 63N-hC, 64N-hC, 65N-hC and SAN-hC, the genes encoding these enzymes were sub-cloned into a pET14b expression vector and expressed in C41 E. coli cells. The purified clones were tested for their L-asparaginase activity (Table 4). E. coli L-asparaginase ansB was also included in order to compare the clones to an L-asparaginase approved for cancer therapy. […] Importantly, the kobs@50 μM values for the humanized clones were also in this range, being 17 sec^−1, 10 sec^−1, 17 sec^−1 and 6 sec^−1 for clones 63N-hC, 64N-hC, 65N-hC and SAN-hC, respectively.

[2] = test system: 64N-hC, shuffled hASNase1/gpASNase1 clone #64 with human C-terminal domain, SEQ ID NO:40; assay: as above; assay type: biochemical, human / guinea pig; conditions: pH 7.5, 37° C.
Procedure: as §1, §2, §3

[3] = test system: 63N-hC, shuffled hASNase1/gpASNase1 clone #63 with human C-terminal domain, SEQ ID NO:39; assay: as above; assay type: biochemical, human / guinea pig; conditions: pH 7.5, 37° C.
Procedure: as §1, §2, §3

[4] = test system: SAN-hC, shuffled hASNase1/gpASNase1 clone #SA with human C-terminal domain, SEQ ID NO:42; assay: as above; assay type: biochemical, human / guinea pig; conditions: pH 7.5, 37° C.
Procedure: as §1, §2, §3

[5] = test system: gN-hC, chimera of guinea pig gpASNase1 N-terminal domain (residue 1-359) and human hASNase1 C-terminal domain (residue 362-573), SEQ ID NO:37; assay: as above; assay type: biochemical; conditions: pH 7.5, 37° C.
Description: (§4) To build the clone hN-gC, the sequence corresponding to the N-terminal domain of hASNase1 (hN, residue 1-361) was amplified using the primers NdeI-hA_F1 and gpA360-367_R and the sequence corresponding to the C-terminal domain of gpASNase1 (gC, residue 360-565) was amplified using the primers hA354-361_F and gpA-BamHI_R565. To build the clone gN-hC the sequence corresponding to the N-terminal domain of gpASNase1 (gN, residue 1-359) was amplified using the primers NdeI-gpA_F1 and hA362-369_R and the sequence corresponding to the C-terminal domain of hASNase1 (hC, residue 362-573) was amplified using the primers gpA352-359_F and hA_BamHI_R573. The chimera was then constructed by PCR fusion of fragment hN and gC or gN and hC using the appropriate primers and then subsequently cloned into the pBAD and pET vectors.
as §1
(§5) Accordingly, two chimeras were generated; one, which was referred to as hN-gC and included the human N-terminal domain fused to the guinea pig C-terminal domain, and the second, which was referred to as gN-hC and included the guinea pig N-terminal domain fused to the human C-terminal domain (FIG. 1, Table 3). In vitro kinetic characterization of these chimeras validated the prediction, with hN-gC displaying kinetic properties similar to hASNase1 and gN-hC displaying kinetic properties similar to gpASNase1 (Table 4).

[6] = test system: hN-gC, chimera of human hASNase1 N-terminal domain (residue 1-361) and guinea pig gpASNase1 C-terminal domain (residue 360-565), SEQ ID NO:38; assay: as above; assay type: biochemical; conditions: pH 7.5, 37° C.
Description: as §4, §1, §5

[7] = target: T1, guinea pig L-asparaginase (GpA) variant GpA369, residues 1-369, SEQ ID NO:5 (Cavia porcellus, UniProt H0W0T5); assay: L-asparaginase activity, kobs at 2 mM Asn; assay type: biochemical
T1 construct: GpA369; 1-369; SUMO (cleaved yes); made in house
Procedure: as §1

[8] = target: T2, guinea pig L-asparaginase (GpA) variant GpA369-C198A + K225C + E340C, SEQ ID NO:55 (Cavia porcellus, UniProt H0W0T5, C198A/E340C/K225C); assay: L-asparaginase activity, kobs at 2 mM Asn; assay type: biochemical
T2 construct: made in house
T2 sequence (H0W0T5 1-369 C198A/K225C/E340C): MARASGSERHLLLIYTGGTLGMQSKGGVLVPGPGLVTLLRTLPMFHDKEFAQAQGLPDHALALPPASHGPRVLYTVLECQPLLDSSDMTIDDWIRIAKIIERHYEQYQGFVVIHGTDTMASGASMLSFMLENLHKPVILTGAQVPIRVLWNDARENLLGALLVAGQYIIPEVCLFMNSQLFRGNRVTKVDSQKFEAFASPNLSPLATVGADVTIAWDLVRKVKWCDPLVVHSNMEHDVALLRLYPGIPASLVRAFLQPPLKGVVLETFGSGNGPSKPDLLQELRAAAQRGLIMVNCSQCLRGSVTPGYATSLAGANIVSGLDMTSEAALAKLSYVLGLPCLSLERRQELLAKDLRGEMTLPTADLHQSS
Procedure: as §1

[9] = target: T3, guinea pig L-asparaginase (GpA) variant GpA369-C198A + K225C, SEQ ID NO:54 (Cavia porcellus, UniProt H0W0T5, C198A/K225C); assay: L-asparaginase activity, kobs at 2 mM Asn; assay type: biochemical
T3 construct: GpA369-C198A + K225C; 99.4%; 71.7%; 54; made in house
T3 sequence (H0W0T5 1-369 C198A/K225C): as the sequence (H0W0T5 1-369 C198A/K225C/E340C) above, with C340E counted along it
Procedure: as §1

[10] = target: T4, guinea pig L-asparaginase (GpA) variant GpA369-C198A, SEQ ID NO:51 (Cavia porcellus, UniProt H0W0T5, C198A); assay: L-asparaginase activity, kobs at 2 mM Asn; assay type: biochemical
T4 construct: made in house
T4 sequence (H0W0T5 1-369 C198A): as the sequence (H0W0T5 1-369 C198A/K225C/E340C) above, with C225K, C340E counted along it
Procedure: as §1

[11] = target: T5, guinea pig L-asparaginase (GpA) variant GpA369-C198A + K225C + E340C + E49C, SEQ ID NO:56 (Cavia porcellus, UniProt H0W0T5, C198A/E340C/E49C/K225C); assay: L-asparaginase activity, kobs at 2 mM Asn; assay type: biochemical
T5 construct: made in house
T5 sequence (H0W0T5 1-369 E49C/C198A/K225C/E340C): as the sequence (H0W0T5 1-369 C198A/K225C/E340C) above, with E49C counted along it
Procedure: as §1

## NC(=O)C[C@H](N)C(=O)O [Asn, L-asparagine]
[1]; 50 μM Asn
  kobs @50 μM: 17 s⁻¹ and 17 ± 1 s⁻¹
[1]
  kcat/Km: 0.5 sec^−1μM^−1
[1]; 10 nM enzyme
  Km: 74 µM
  kcat: 40 ± 1 s⁻¹
[2]; 50 μM Asn
  kobs @50 μM: 10 s⁻¹ and 10 ± 1 s⁻¹
[2]
  kcat/Km: 0.3 sec^−1μM^−1
[2]; 10 nM enzyme
  Km: 202 ± 17 µM
  kcat: 60 ± 2 s⁻¹
[3]; 50 μM Asn
  kobs @50 μM: 17 s⁻¹ and 17 ± 0.5 s⁻¹
[3]
  kcat/Km: 0.7 sec^−1μM^−1
[3]; 10 nM enzyme
  Km: 47 µM
  kcat: 32 ± 0.6 s⁻¹
[4]; 50 μM Asn
  kobs @50 μM: 6 s⁻¹ and 6 ± 1 s⁻¹
[4]
  kcat/Km: 0.2 sec^−1μM^−1
[4]; 10 nM enzyme
  Km: 165 µM
  kcat: 32 ± 2 s⁻¹
[5]; 50 μM Asn
  kobs @50 μM: 14 ± 1 s⁻¹
[5]
  kcat/Km: 0.7 sec^−1μM^−1
[5]; 10 nM enzyme
  Km: 35 µM
  kcat: 24 ± 1 s⁻¹
[6]
  kcat/Km: 0.004 sec^−1μM^−1
[6]; 50 nM enzyme
  Km: 3800 ± 120 µM
  kcat: 14 ± 0.5 s⁻¹
[7]
  kobs at 2 mM ASN: 44 s⁻¹
[8]
  kobs at 2 mM ASN: 42.4 s⁻¹
[9]
  kobs at 2 mM ASN: 41.4 s⁻¹
[10]
  kobs at 2 mM ASN: 43.3 s⁻¹
[11]
  kobs at 2 mM ASN: 41.6 s⁻¹
